Earlier results as cited in patent publication US20150045434A1, “METHIONINE COMPOUND INTENDED FOR ANIMAL FEED” (ROQUETTE FRERES, priority 2011, published 2015).

What was measured:
[1] = at 35° C.

CSCC[C@H](N)C(=O)O [methionine]
solubility of methionine [1]: about 70 g/l
pKa1 (pKa of the acid function of methionine) (acid function): 2.2
pKa2 (pKa of the amine function of methionine) (amine function): 9.3
